Assay results published in paper PMC9063446, “Biochemical and in silico identification of the active site and the catalytic mechanism of the circadian deadenylase HESPERIN” (FEBS Open Bio, 2022).
One block for each molecule: values may come before it.

Tests used:
AtHESPERIN (Hesperin) = molecular target: T1, AtHESPERIN (Hesperin) (Arabidopsis thaliana, UniProt A8MS41); experiment: colorimetric methylene blue poly(A) degradation assay, modified Hanes-Woolf plot; assay type: biochemical; details: substrate poly(A); Buffer R with 2 mM MgCl2, 0.1 M NaCl, pH 6.5, 25 °C; competitive, reaction product
T1 construct: gene CCR4-4; HESPERIN cDNA in pATHRA (pET-15b derived), E. coli BL21-GOLD(DE3); N-terminal 6xHis tag cut by HRV 3C protease; SEC; oligomer, mainly trimer (~150 kDa)
T1 sequence (A8MS41 1-417): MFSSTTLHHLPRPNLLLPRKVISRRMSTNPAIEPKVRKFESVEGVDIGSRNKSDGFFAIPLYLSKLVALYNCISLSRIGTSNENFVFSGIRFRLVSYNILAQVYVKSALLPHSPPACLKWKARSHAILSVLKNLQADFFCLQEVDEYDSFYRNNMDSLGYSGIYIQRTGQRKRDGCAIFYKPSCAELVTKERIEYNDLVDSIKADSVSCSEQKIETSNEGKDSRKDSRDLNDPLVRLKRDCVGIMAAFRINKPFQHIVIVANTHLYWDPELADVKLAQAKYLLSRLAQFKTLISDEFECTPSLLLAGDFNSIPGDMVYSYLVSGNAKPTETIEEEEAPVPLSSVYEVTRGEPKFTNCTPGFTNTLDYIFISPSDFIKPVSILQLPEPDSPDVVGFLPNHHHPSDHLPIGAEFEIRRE

[1] = molecular target: the molecule itself; experiment: native gel or EMSA; 7% PAGE under nondenaturing conditions for acidic proteins; 16 ug AtHESPERIN incubated with urea, up to 4 M; BSA and urease as mass standards

Ki (AtHESPERIN (Hesperin)): 1800 ± 200 nM
Molecule: Nc1ncnc2c1ncn2[C@@H]1O[C@H](COP(=O)(O)O)[C@@H](O)[C@H]1O [AMP]

B1: AtHESPERIN (enzyme, Arabidopsis thaliana, UniProt A8MS41 1-417, looked up)
chain: T1 sequence (A8MS41 1-417)
notes: AtHESPERIN (Hesperin), circadian EEP deadenylase of Arabidopsis thaliana, UniProtKB A8MS41; cDNA cloned in pATHRA behind 6x His tag and HRV 3C site; The His tag was removed with HRV 3C protease (site LEVLFQ/GP), so residues of the site may be left at the N-terminus; It calls the oligomer mainly trimeric; also called native AtHESPERIN; wild-type AtHESPERIN; source: E. coli BL21-GOLD (DE3), …
stoichiometry N [1]: 3
